Test results reported in US11612580B2, “Compositions for inhibiting 3′ repair exonuclease 2 and methods of screening for such compositions” (THE BOARD OF REGENTS OF THE UNIVERSITY OF TEXAS SYSTEM, priority 2017, dated 2023).

Assays:
[1] = tested on: mouse embryonic stem (ES) cells; assay: reduction of mutations in mouse embryonic stem (ES) cells; type: cell-based; settings: hits from Chembridge Diverset screen
Text: Assays as described here were used to screen a Chembridge Diverset library (30,000 compounds). […] These small molecules are: 4-benzoyl-2-methyphenyl (2-nitrophenoxy) acetate; N-benzyl-2-([bis(furan-2-yl)-1,2,4-triazin-3-yl] sulfanyl) acetamide; 6-(benzylcarbamoyl)-1-methycyclohex-3-ene-1-carboxylic acid; 8-(phenylamino)naphthalene-1-sulfonic acid; and benzyl 6-(furan-2-yl)-3-methyl-4-oxo-4,5,6,7-tetrahydro-1H-indole-2-carboxylate. […] TX2Is appear to be nontoxic to cells and TREX2-deletion was asymptomatic for >50% of life span.

msh2^−/− cells = assay: puro(A)10 polymerase slippage assay, puromycin resistant colonies; type: cell-based, mouse; settings: msh2^−/− cells with puro(A)10 reporter; 10 μM TREX2 inhibitor with puromycin; colonies counted about day 10; DMSO versus compounds p<0.02 (FIGS. 8B, 8C)

| SMILES | mutations in mouse embryonic stem (ES) cells [1] | spontaneous polymerase slippage (fraction of puromycin resistant cells) (msh2^−/− cells) |
| --- | --- | --- |
| Cc1cc(C(=O)c2ccccc2)ccc1OC(=O)COc1ccccc1[N+](=O)[O-] [Compound 1, 4-benzoyl-2-methyphenyl (2-nitrophenoxy) acetate] | reduce a range of mutations | reduce spontaneous polymerase slippage |
| O=S(=O)(O)c1cccc2cccc(Nc3ccccc3)c12 [Compound 6, 8-(phenylamino)naphthalene-1-sulfonic acid] | reduce a range of mutations | reduce spontaneous polymerase slippage |
| O=C(CSc1nnc(-c2ccco2)c(-c2ccco2)n1)NCc1ccccc1 [Compound 10, N-benzyl-2-([bis(furan-2-yl)-1,2,4-triazin-3-yl]sulfanyl) acetamide] | reduce a range of mutations | reduce spontaneous polymerase slippage |
| CC1(C(=O)O)CC=CCC1C(=O)NCc1ccccc1 (stereo not drawn) [Compound 11, 6-(benzylcarbamoyl)-1-methycyclohex-3-ene-1-carboxylic acid] | reduce a range of mutations | reduce spontaneous polymerase slippage |
| Cc1c(C(=O)OCc2ccccc2)[nH]c2c1C(=O)CC(c1ccco1)C2 (stereo not drawn) [benzyl 6-(furan-2-yl)-3-methyl-4-oxo-4,5,6,7-tetrahydro-1H-indole-2-carboxylate] | reduce a range of mutations |  |
